Broadly, the IC50 is the midpoint of a concentration-inhibition curve. In general, viability, T/C refers to the result in the treated group divided by that in the control group, in per cent.

This is an account of results in PubChem BioAssay AID1963420 (Molecular Pharmacology Branch, DTP, NCI, 2024).

This experiment deals with 494315-158-R-J1-PDC complex spheroid growth, percent test/control. In words: Anticancer human tumor 494315-158-R-J1-PDC patient-derived soft tissue sarcoma cell line growth inhibition [Asc]. The conditions noted are these: for viability, T/C: stronger effect = lower value. The method in brief:
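Tumor cells were grown as complex spheroids with human endothelial cells (HUVEC) and human mesenchymal stem cells as stroma. Agents were tested alone and in combination, in half-log steps down from the clinical Cmax, or from 10 microM where Cmax was unknown.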

Setting [1] is: curve of first compound, second compound 0.1 µM.
Setting [2] is: curve of first compound, second compound 0.316 µM.
The mark [3] stands for this setting: curve of first compound, second compound 1 µM.
[4] abbreviates: second compound 0.1 µM, first compound 0.00316 µM.
Setting [5] is: second compound 0.1 µM, first compound 0.01 µM.
[6] abbreviates: second compound 0.1 µM, first compound 0.0316 µM.
The mark [7] stands for this setting: second compound 0.1 µM, first compound 0.1 µM.
[8] abbreviates: second compound 0.316 µM, first compound 0.00316 µM.
The mark [9] stands for this setting: second compound 0.316 µM, first compound 0.01 µM.
Where [10] appears, read: second compound 0.316 µM, first compound 0.0316 µM.
Where [11] appears, read: second compound 0.316 µM, first compound 0.1 µM.
[12] abbreviates: second compound 1 µM, first compound 0.00316 µM.
Where [13] appears, read: second compound 1 µM, first compound 0.01 µM.
Setting [14] is: second compound 1 µM, first compound 0.0316 µM.
Setting [15] is: second compound 1 µM, first compound 0.1 µM.
Where [16] appears, read: curve of first compound, second compound 0.01 µM.
The mark [17] stands for this setting: curve of first compound, second compound 0.0316 µM.
The mark [18] stands for this setting: second compound 0.01 µM, first compound 0.00316 µM.
Where [19] appears, read: second compound 0.01 µM, first compound 0.01 µM.
Where [20] appears, read: second compound 0.01 µM, first compound 0.0316 µM.
The mark [21] stands for this setting: second compound 0.01 µM, first compound 0.1 µM.
The mark [22] stands for this setting: second compound 0.01 µM, first compound 0.316 µM.
Where [23] appears, read: second compound 0.01 µM, first compound 1 µM.
Setting [24] is: second compound 0.0316 µM, first compound 0.00316 µM.
Where [25] appears, read: second compound 0.0316 µM, first compound 0.01 µM.
Setting [26] is: second compound 0.0316 µM, first compound 0.0316 µM.
The mark [27] stands for this setting: second compound 0.0316 µM, first compound 0.1 µM.
Setting [28] is: second compound 0.0316 µM, first compound 0.316 µM.
Setting [29] is: second compound 0.0316 µM, first compound 1 µM.
Where [30] appears, read: second compound 0.1 µM, first compound 0.316 µM.
Setting [31] is: second compound 0.1 µM, first compound 1 µM.
[32] abbreviates: second compound 0.316 µM, first compound 0.316 µM.
[33] abbreviates: second compound 0.316 µM, first compound 1 µM.
Where [34] appears, read: second compound 1 µM, first compound 0.316 µM.
[35] abbreviates: second compound 1 µM, first compound 1 µM.

“And” between values parts separate entries of the source, which are not always exact repeats. Equal values may be shown once.
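Also: compound exposure lasted seven days after spheroids formed for three days.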

Take `NC1CCC(NC2CC2c2ccccc2)CC1` (centres undefined) + Cc1c(S(C)(=O)=O)c(-c2cc(F)cc(N3CCN(c4ccc(NS(=O)(=O)c5ccc(NC(CCN6CCC(C(=O)OCCCP(=O)(O)O)CC6)CSc6ccccc6)c(S(=O)(=O)C(F)(F)F)c5)cc4)CC3)c2)c(-c2ccc(Cl)cc2)n1C(C)C: the IC50 reads like this: under setting [1], greater than 100 nM; under setting [2], greater than 100 nM; under setting [3], 9.33 nM; (curve of first compound, second compound 3.16 µM) 0.337 nM; (curve of first compound, second compound 10 µM) greater than 100 nM. Also, the viability, T/C (second compound 0.1 µM, first compound 0.000316 µM) is 72.5%; the viability, T/C (second compound 0.1 µM, first compound 0.001 µM) was 71.3%; the viability, T/C under setting [4] is 78.8%; the viability, T/C under setting [5] is 68.5%; the viability, T/C under setting [6] was 74.6%; the viability, T/C under setting [7] is 72.9%. The viability, T/C was 56.4% (second compound 0.316 µM, first compound 0.000316 µM); 61.5% (second compound 0.316 µM, first compound 0.001 µM); 61% under setting [8]; 57.6% under setting [9]; 64.5% under setting [10]; 61.8% under setting [11]. Also, the viability, T/C runs as follows: (second compound 1 µM, first compound 0.000316 µM) 53.3%; (second compound 1 µM, first compound 0.001 µM) 67.5%; under setting [12], 61.7%; under setting [13], 47.9%; under setting [14], 44.4%; under setting [15], 55.6%. Further, the viability, T/C reads like this: (second compound 3.16 µM, first compound 0.000316 µM) 49.9%; (second compound 3.16 µM, first compound 0.001 µM) 47.4%; (second compound 3.16 µM, first compound 0.00316 µM) 43.6%; (second compound 3.16 µM, first compound 0.01 µM) 43%; (second compound 3.16 µM, first compound 0.0316 µM) 39.8%; (second compound 3.16 µM, first compound 0.1 µM) 47.5%. In addition, the viability, T/C is, setting by setting: (second compound 10 µM, first compound 0.000316 µM) 58%; (second compound 10 µM, first compound 0.001 µM) 58.6%; (second compound 10 µM, first compound 0.00316 µM) 57.9%; (second compound 10 µM, first compound 0.01 µM) 57.6%; (second compound 10 µM, first compound 0.0316 µM) 57.1%; (second compound 10 µM, first compound 0.1 µM) 56%.
Take `Cn1ncnc1[C@H]1c2n[nH]c(=O)c3cc(F)cc(c23)N[C@@H]1c1ccc(F)cc1`: the viability, T/C runs as follows: (compound 0.000316 µM) 84.6% and 103% and 102%; (compound 0.001 µM) 85.7% and 93.6% and 83.1%; (compound 0.00316 µM) 83.3% and 95.1% and 85%; (compound 0.01 µM) 73.3% and 73.7% and 87.7%; (compound 0.0316 µM) 66.1% and 69.2% and 73.8%; (compound 0.1 µM) 67.4% and 65.3% and 60.4%. In addition, the half-maximal inhibitory concentration (IC50) (curve of compound) is greater than 100 nM.
On to `COc1c(OCCCN2CCOCC2)ccc2c3n(c(=NC(=O)c4cnc(N)nc4)nc12)CCN3` + CNC(C)C(=O)NC1CN(S(=O)(=O)c2cccc(S(=O)(=O)N3CCC4CCC(C(=O)NC(c5ccccc5)c5ccccc5)N4C(=O)C(NC(=O)C(C)NC)C3)c2)CCC2CCC(C(=O)NC(c3ccccc3)c3ccccc3)N2C1=O, for which the IC50 was 17.1 nM under setting [16]; 11 nM under setting [17]; 4.59 nM under setting [1]; less than 3.16 nM under setting [2]; less than 3.16 nM under setting [3]. For the same molecule, the viability, T/C under setting [18] was 65.8%; the viability, T/C under setting [19] was 55.1%; the viability, T/C under setting [20] is 44.7%; the viability, T/C under setting [21] is 22.7%; the viability, T/C under setting [22] is 16.8%; the viability, T/C under setting [23] was 8.91%. Also, the viability, T/C by setting is: under setting [24], 53.5%; under setting [25], 54.3%; under setting [26], 37.3%; under setting [27], 25.5%; under setting [28], 14%; under setting [29], 9.58%. Besides, the viability, T/C reads like this: under setting [4], 52.3%; under setting [5], 45.3%; under setting [6], 30.1%; under setting [7], 18.9%; under setting [30], 12.8%; under setting [31], 9.36%. Besides, the viability, T/C is 38.2% under setting [8]; 39.2% under setting [9]; 28.4% under setting [10]; 16.8% under setting [11]; 11.8% under setting [32]; 9.4% under setting [33]. The viability, T/C was 47.4% under setting [12]; 35.2% under setting [13]; 25.2% under setting [14]; 18.6% under setting [15]; 9.45% under setting [34]; 7.69% under setting [35].
`O=C(c1ccc(F)c(F)c1Nc1ccc(I)cc1F)N1CC(O)([C@@H]2CCCCN2)C1` + CNC(C)C(=O)NC1CN(S(=O)(=O)c2cccc(S(=O)(=O)N3CCC4CCC(C(=O)NC(c5ccccc5)c5ccccc5)N4C(=O)C(NC(=O)C(C)NC)C3)c2)CCC2CCC(C(=O)NC(c3ccccc3)c3ccccc3)N2C1=O: the IC50 by setting is: under setting [16], greater than 1000 nM; under setting [17], 927 nM; under setting [1], greater than 1000 nM; under setting [2], less than 3.16 nM; under setting [3], less than 3.16 nM. Also, the viability, T/C under setting [18] was 83.5%; the viability, T/C under setting [19] was 75.5%; the viability, T/C under setting [20] was 85.8%; the viability, T/C under setting [21] is 96.7%; the viability, T/C under setting [22] is 97.3%; the viability, T/C under setting [23] was 62.9%. Also, the viability, T/C is, setting by setting: under setting [24], 72.8%; under setting [25], 68.3%; under setting [26], 74.3%; under setting [27], 93.1%; under setting [28], 87.8%; under setting [29], 47.9%. In addition, the viability, T/C runs as follows: under setting [4], 53.2%; under setting [5], 61.4%; under setting [6], 65.8%; under setting [7], 87.5%; under setting [30], 92.7%; under setting [31], 59.9%. Further, the viability, T/C was 46.7% under setting [8]; 60.3% under setting [9]; 57.2% under setting [10]; 67.5% under setting [11]; 72.2% under setting [32]; 58.3% under setting [33]. For the same molecule, the viability, T/C is, setting by setting: under setting [12], 47.9%; under setting [13], 52%; under setting [14], 67.1%; under setting [15], 66.3%; under setting [34], 76.2%; under setting [35], 46.7%.
As to `O=C(c1ccc(F)c(F)c1Nc1ccc(I)cc1F)N1CC(O)([C@@H]2CCCCN2)C1`, the viability, T/C by setting is: (compound 0.00316 µM) 92.8% and 93% and 99.5%; (compound 0.01 µM) 111% and 90% and 99.1%; (compound 0.0316 µM) 108% and 106% and 90.2%; (compound 0.1 µM) 124% and 100% and 114%; (compound 0.316 µM) 98.4% and 90% and 111%; (compound 1 µM) 57.7% and 54.8% and 65.7%. The IC50 (curve of compound) was greater than 1000 nM.
